Laboratory results from paper PMC4546552 (ACS chemical biology, 2015).
Like-named read-outs stand apart in the source and are kept apart here.

Experiments:
rodent models = conditions: cited from earlier work
human NAAA (h-NAAA) = biological target: T1, human NAAA (h-NAAA) (Homo sapiens, UniProt Q02083); conditions: read-out: IC50 for human NAAA (h-NAAA); cited from earlier work
T1 sequence (Q02083 29-359): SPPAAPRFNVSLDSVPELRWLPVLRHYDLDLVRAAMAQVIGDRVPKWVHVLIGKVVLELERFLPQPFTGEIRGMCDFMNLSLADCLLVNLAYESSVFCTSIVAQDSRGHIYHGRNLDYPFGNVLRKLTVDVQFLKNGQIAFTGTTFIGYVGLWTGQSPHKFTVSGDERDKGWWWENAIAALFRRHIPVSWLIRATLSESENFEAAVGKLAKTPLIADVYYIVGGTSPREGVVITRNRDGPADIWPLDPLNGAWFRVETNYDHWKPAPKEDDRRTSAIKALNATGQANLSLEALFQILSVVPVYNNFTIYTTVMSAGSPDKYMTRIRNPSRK

[1] = cited from earlier work
rat NAAA (r-NAAA) = biological target: T2, rat NAAA (r-NAAA) (Rattus norvegicus, UniProt Q5KTC7); conditions: cited from earlier work
T2 sequence (Q5KTC7 131-362 limits assumed): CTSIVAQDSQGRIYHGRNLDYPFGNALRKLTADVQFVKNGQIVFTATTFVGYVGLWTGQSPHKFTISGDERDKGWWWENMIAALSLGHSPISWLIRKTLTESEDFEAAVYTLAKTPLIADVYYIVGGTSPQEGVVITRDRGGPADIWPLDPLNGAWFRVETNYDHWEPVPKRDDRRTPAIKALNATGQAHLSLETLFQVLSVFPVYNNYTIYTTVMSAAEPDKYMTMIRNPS
T2 sequence (Q5KTC7 34-130 limits assumed): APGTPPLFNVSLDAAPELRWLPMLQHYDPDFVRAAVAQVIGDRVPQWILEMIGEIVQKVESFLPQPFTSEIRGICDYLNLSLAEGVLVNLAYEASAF

NAAA [2] = biological target: T3, NAAA (Mus musculus, UniProt Q9D7V9); assay: Ex vivo mouse NAAA activity after dosing; type: in vivo; conditions: mice
T3 sequence (Q9D7V9 34-362): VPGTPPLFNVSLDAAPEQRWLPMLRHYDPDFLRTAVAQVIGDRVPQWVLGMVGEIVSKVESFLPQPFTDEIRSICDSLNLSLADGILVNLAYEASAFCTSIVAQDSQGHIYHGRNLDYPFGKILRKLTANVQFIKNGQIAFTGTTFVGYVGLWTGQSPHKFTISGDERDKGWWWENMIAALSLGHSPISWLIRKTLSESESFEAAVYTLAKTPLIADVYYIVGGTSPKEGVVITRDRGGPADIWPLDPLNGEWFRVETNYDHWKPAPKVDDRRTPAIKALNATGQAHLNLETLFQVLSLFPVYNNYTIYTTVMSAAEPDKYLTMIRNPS

rat FAAH = biological target: T4, rat FAAH (Rattus norvegicus, UniProt P97612); assay: Rat FAAH inhibition; type: biochemical
T4 sequence (P97612 1-579): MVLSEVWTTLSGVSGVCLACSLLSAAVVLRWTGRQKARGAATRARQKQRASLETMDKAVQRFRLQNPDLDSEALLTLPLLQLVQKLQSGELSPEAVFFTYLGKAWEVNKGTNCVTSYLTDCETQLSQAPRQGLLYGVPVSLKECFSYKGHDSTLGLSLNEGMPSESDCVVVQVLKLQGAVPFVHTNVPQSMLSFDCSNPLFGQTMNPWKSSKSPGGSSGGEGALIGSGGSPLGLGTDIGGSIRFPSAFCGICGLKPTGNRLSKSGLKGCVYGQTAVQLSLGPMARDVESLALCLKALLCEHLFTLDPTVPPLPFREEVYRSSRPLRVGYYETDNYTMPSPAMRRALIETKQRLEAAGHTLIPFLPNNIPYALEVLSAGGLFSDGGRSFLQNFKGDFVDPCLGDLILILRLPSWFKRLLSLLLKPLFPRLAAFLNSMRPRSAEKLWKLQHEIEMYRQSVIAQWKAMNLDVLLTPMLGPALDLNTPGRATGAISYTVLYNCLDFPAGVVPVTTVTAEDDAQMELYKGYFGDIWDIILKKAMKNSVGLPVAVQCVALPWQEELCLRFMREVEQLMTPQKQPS

PEA and OEA levels = PEA and OEA levels in mouse lungs; type: in vivo; conditions: 30 mg kg^−1 oral
[3] = system: panel of 28 biologically relevant targets comprising lipid-metabolizing and inflammation-related enzymes; assay: CEREP selectivity panel, enzymes; type: biochemical; conditions: 10 μM
[4] = system: 79 commonly targeted ion channels, membrane transporters and receptors; assay: CEREP selectivity panel, channels, transporters, receptors; type: binding; conditions: 10 μM
[5] = Pharmacokinetic analyses in mice, intravenous; type: in vivo; conditions: mouse, plasma, 3 mg/kg
NAAA [6] = biological target: T5, NAAA (Rattus norvegicus, UniProt Q5KTC7); assay: In vivo NAAA acylation in rat lungs; conditions: rats, intravenous, 10 mg kg^−1
T5 sequence (Q5KTC7 131-362 limits assumed): T2 sequence (Q5KTC7 131-362 limits assumed)
T5 sequence (Q5KTC7 34-130 limits assumed): T2 sequence (Q5KTC7 34-130 limits assumed)

[7] = system: LPS-activated human macrophages; assay: LPS-activated human monocyte-derived macrophages; type: cell-based
[8] = system: carrageenan-induced inflammation; assay: Carrageenan-induced inflammation in mice; type: in vivo, mouse
[9] = Stability in rat liver microsomes; type: in vitro ADME
r-NAAA = biological target: T6, r-NAAA (Rattus norvegicus, UniProt Q5KTC7); assay: NAAA acylation in r-NAAA-overexpressing HEK-293 cells; type: cell-based; conditions: HEK-293 cells overexpressing r-NAAA, 10 μM, 1 h
T6 sequence (Q5KTC7 131-362 limits assumed): T2 sequence (Q5KTC7 131-362 limits assumed)
T6 sequence (Q5KTC7 34-130 limits assumed): T2 sequence (Q5KTC7 34-130 limits assumed)

[10] = Stability in mouse liver microsomes; type: in vitro ADME

In the case of `C[C@@H]1OC(=O)[C@@H]1NC(=O)OCCCCCc1ccccc1` [Compound 4], the “analgesic properties in rodent models” value (rodent models) is listed as “marked analgesic properties”, the IC50 (human NAAA (h-NAAA)) is listed as roughly 7 nM and the t1/2 in plasma [1] is listed as less than 1 min. The IC50 (rat NAAA (r-NAAA); read-out: IC50 for r-NAAA) was roughly 50 nM.

In the case of `O=C(CCc1ccccc1)N[C@H]1COC1=O` [Compound 3, N-[(3S)-2-oxo-3-oxetanyl]-3-phenylpropanamide], the IC50 (rat NAAA (r-NAAA); read-out: IC50 for rat NAAA (r-NAAA)) is given as roughly 420 nM.

In the case of `O=C(N[C@H]1CNC1=O)OCCCCC1CCCCC1` [Compound 6, 4-Cyclohexylbutyl-N-[(S)-2-oxoazetidin-3-yl]carbamate], the “inhibition of NAAA activity in various organs” value (NAAA [2]; intraperitoneal 3–30 mg kg^−1, 2 h) is reported as “substantial inhibition of NAAA activity”, the “inhibition of NAAA activity ex vivo” value (NAAA [2]; oral 30 mg kg^−1, 2 h) is reported as “substantial inhibition of NAAA activity” and the IC50 (rat FAAH) is reported as greater than 100000 nM. For the same compound, the “OEA levels in lungs” value (PEA and OEA levels; carrageenan-challenged mice) was “markedly increased”, the “PEA levels in lungs” value (PEA and OEA levels; carrageenan-challenged mice) was “markedly increased” and the “OEA levels in lungs” value (PEA and OEA levels; naïve mice) was “no effect”. For the same compound, the “PEA levels in lungs” value (PEA and OEA levels; naïve mice) was “no effect”, the “interaction with panel of 28 enzymes” value [3] was “did not interact” and the “effect on 79 ion channels, membrane transporters and receptors” value [4] was “no significant effect”. The Cmax [5] was 1610 ng/mL, the Vd [5] was 3.1 L/kg and the clearance [5] was 139 mL/min/kg. For the same compound, the half-life [5] was roughly 15 min, the “formation of covalent NAAA adduct in lungs” value (NAAA [6]) was “rapid formation of covalent adduct” and the “LPS-induced expression of iNOS” value ([7]; CD68+ human macrophages, LPS 100 ng mL^−1, flow cytometry) was “significant concentration-dependent inhibition”. For the same compound, the “LPS-induced release of TNF-α” value ([7]; CD68+ human macrophages, LPS, enzyme-linked immunoassay) was “significant concentration-dependent inhibition”, the “LPS-induced TNF-α expression” value ([7]; human macrophages, LPS, flow cytometry) was “Concentration-dependent effects” and the “anti-inflammatory effects under antagonism of CB1 or CB2 receptors” value ([8]; AM251 or AM630 1 mg kg^−1 i.p. 30 min before 6) was “did not prevent the anti-inflammatory effects”. The “carrageenan-induced TNF-α levels in pleural exudate” value ([8]; mice, 1–30 mg kg^−1, oral) was “prevented both responses in a dose-dependent manner”, the “carrageenan-induced lung tissue myeloperoxidase (MPO) activity” value ([8]; mice, 1–30 mg kg^−1, oral) was “prevented both responses in a dose-dependent manner” and the half-life [9] was less than 5 min. The “covalent adduct with N-terminal cysteine (Cys131) of NAAA” value (r-NAAA) was “covalent product” and the half-life [10] was less than 5 min.

With `C[C@@H]1C[C@H]2[C@@H]3CCC4=CC(=O)C=C[C@]4(C)[C@@]3(F)[C@@H](O)C[C@]2(C)[C@@]1(O)C(=O)CO` [dexamethasone, reference compound] the “carrageenan-induced lung MPO activity, effect relative to maximal effect of 6” value ([8]; mice, 0.5 mg kg^−1, intraperitoneal) was “comparable”.

For `O=C(N[C@@H]1CNC1=O)OCCCCC1CCCCC1` [Compound 7, 4-Cyclohexylbutyl-N-[(R)-2-oxoazetidin-3-yl]carbamate], the “carrageenan-induced TNF-α levels in pleural exudate” value ([8]; mice, 30 mg kg^−1, oral) was “no such effect”, the “carrageenan-induced lung tissue myeloperoxidase (MPO) activity” value ([8]; mice, 30 mg kg^−1, oral) was “no such effect” and the “covalent adduct with N-terminal cysteine (Cys131) of NAAA” value (r-NAAA) was “only negligible amounts of the adduct”.
